Source: US20170172958A1, “Compounds for Use in Controlling Body Fat” (priority 2014, published 2017)

Key:
[1] = rats, Ogihara et al; cited from earlier work
[2] = Body mass of mice on a high fat diet, BSO in drinking water, four weeks; format: in vivo, Male C3H mice; conditions: BSO 30 mmol/L in drinking water, over four week treatment, control group showed significant weight gain
Source text: (§1) Male C3H mice were used. Two cohorts of twelve mice were weaned and fed on a commercial standard diet (SDS Rat and Mouse No.3 Breeding diet (RM3)), containing 3.36 g% fat, 22.45 g % protein and 71.21 g % carbohydrate, till maturity. At 11 weeks of age, the standard diet was replaced with a high fat diet (Research Diets Inc, USA, D12492, containing 35 g % fat, from lard and soybean oil). One cohort was provided with BSO (30 mmol/L) in their drinking water, concomitant with the start of high fat feeding, while the other cohort (control group) received no treatment. […]
(§2) Phenotyping tests were performed according to the European Phenotyping Resource for Standardised Screens (EMPReSS) from EUMORPHIA standardized protocols, available at http://empress.har.mrc.ac.uk. Body mass was measured daily on scales calibrated to 0.01 g. Metabolic rate was measured using indirect calorimetry (Oxymax; Columbus Instruments) to determine oxygen consumption and carbon dioxide production. Body composition (% fat tissue and % lean tissue) was assessed utilizing an EchoMRl-100 quantitative magnetic resonance whole body composition analyzer (Echo Medical Systems, Houston, Tex.).

[3] = Plasma amino acids and sulphur compounds (tCys, tHcy, glutathione, taurine); format: in vivo, Male C3H mice
Source text: Further, SCD activity increases with high tCys concentration in both rodents and humans. tCys refers to all natural forms of circulating cysteine, such as cysteine (thiol form), cystine (disulphide form), cysteine-mixed disulphides with other thiol compounds, and protein-bound cysteine not in peptide linkage. tCys in the plasma or serum can be measured using techniques described, for example, in WO2010/010383.
(§3) Male C3H mice were used. Two cohorts of twelve mice were weaned and fed on a commercial standard diet (SDS Rat and Mouse No.3 Breeding diet (RM3)), containing 3.36 g% fat, 22.45 g % protein and 71.21 g % carbohydrate, till maturity. At 11 weeks of age, the standard diet was replaced with a high fat diet (Research Diets Inc, USA, D12492, containing 35 g % fat, from lard and soybean oil). One cohort was provided with BSO (30 mmol/L) in their drinking water, concomitant with the start of high fat feeding, while the other cohort (control group) received no treatment. The mice were kept in accordance with UK Home Office welfare guidelines and project license restrictions under controlled light (12-h light and 12-h dark cycle; dark 7 p.m.-7 a.m.), temperature (21° C.±2° C.) and humidity (55%±10%) conditions. They had free access to water (10 ppm chlorine) and food throughout the experiment.

[4] = Metabolic rate by indirect calorimetry (Oxymax); format: in vivo, Male C3H mice; conditions: dark and light phases, per unit weight, vs control, P<0.001
Source text: as §1, §2

liver cells = test: Liver histology, fat vacuolation score; format: in vivo, Male C3H mice; conditions: high fat diet, vs control
Source text: as §3

adipocytes = conditions: Vigilanza et al; cited from earlier work
[5] = Findeisen et al, cited from earlier work
[6] = Plasma fatty acid concentrations (free and total); format: in vivo, Male C3H mice; conditions: vs control
Source text: as §3

[7] = Plasma and liver reduced and total glutathione, eight week BSO study; format: in vivo, Male C3H mice; conditions: eight weeks BSO, vs control
Source text: as §3
(§4) For the results presented in FIGS. 23 and 24, the experiments were carried out using the same conditions as described above (i.e. same mouse strain, mouse age, diet, and experimental design) except that the mice were treated for eight weeks with BSO, and the plasma for insulin, glucose, and leptin analysis was drawn after a 6-hour fast, after six weeks of BSO treatment.

[8] = test system: stearoyl-coenzymeA desaturase (SCD); test: SCD activity indices (SCD16, SCD18) from plasma fatty acid ratios; format: in vivo, Male C3H mice; conditions: vs control
Source text: Compounds of Formula I inhibit SCD activity, which can be measured using one or more activity indices. These can be based on measurements of different fatty acid components of the blood plasma or serum.
Activity indices are based on the amount of monounsaturated fatty acids relative to their respective […] precursors. The most commonly used SCD activity indices are derived from the ratio of palmitoleic to palmitic acids (“SCD16 index”), and the ratio of oleic to stearic acid (“SCD18 index”). These ratios are lowered with increased inhibition of SCD. SCD indices can either be calculated from plasma/serum free fatty acids, or from the total fatty acid pool, which also includes esterified fatty acids (e.g. triglycerides and phospholipids). Indices calculated from free fatty acid concentrations reflect SCD activity in adipose tissue, while those from total fatty acids reflect SCD activity in liver (Warensjo et al, Lipids Health Dis 2009, 8:37). Both in rodents and humans, SCD indices are associated with fat mass.
as §3

[9] = Body composition (EchoMRI) and dissected fat depots of mice on a high fat diet; format: in vivo, Male C3H mice
Source text: as §3, §2

[10] = Fasting plasma glucose, insulin and HOMA-IR, eight week BSO study; format: in vivo, Male C3H mice; conditions: after six weeks of BSO treatment, vs control
Source text: as §3
Thus, BSO-treated mice had lower glucose plasma levels, and lower insulin concentrations compared to the control. […] The HOMA IR index is a calculation of insulin resistance based on fasting glucose and insulin plasma levels, the calculation being known to those skilled in the art. Leptin plasma levels are also shown.
as §4

[11] = Plasma ALT, lipid components, glucose and glycerol; format: in vivo, Male C3H mice; conditions: vs control
Source text: as §3

[12] = dissected mice, vs control, P<0.001

SMILES: CCCCS(=N)(=O)CCC(N)C(=O)O (centres unmarked) [BSO, buthionine sulfoximine]
- insulin resistance [1]: induces insulin resistance
- body weight [2]: reduction in body weight
- concentration of amino acids in the plasma ([3]; difference between BSO and control cohorts): little difference
- plasma glutathione concentrations ([3]; four week study, vs control): decrease
- total homocysteine (tHcy) plasma concentrations ([3]; vs control): larger concentrations
- plasma taurine concentrations ([3]; vs control cohort): substantially lower
- plasma tCys concentrations ([3]; vs controls, all measured forms of cysteine): significantly and substantially lower
- carbon dioxide production [4]: greater
- oxygen consumption [4]: significantly greater
- liver fat vacuolation (liver cells): absent
- adipogenesis (adipocytes): increased adipogenesis
- intracellular glutathione (adipocytes): decreases
- triglycerides in adipocytes (adipocytes): triglyceride accumulation
- insulin sensitivity [5]: preserve insulin sensitivity
- diet-induced obesity ([5]; mice): reduce
- energy expenditure ([5]; mice): increase
- locomotor activity ([5]; mice): increase
- fatty acid plasma concentrations, a number of C14 to C22 fatty acids ([6]; free and total fatty acids): lower
- free palmitic acid plasma concentration [6]: lower
- free palmitoleic acid plasma concentration [6]: lower
- liver rGSH levels [7]: similar
- liver rGSH/tGSH ratio [7]: higher
- liver tGSH levels [7]: lower
- plasma rGSH/tGSH ratio [7]: similar
- plasma reduced glutathione (rGSH) [7]: lower
- plasma total glutathione (tGSH) [7]: lower
- oleic acid to stearic acid ratio (SCD18 index) ([8]; free fatty acids in plasma): lower
- ratio of palmitoleic acid to palmitic acid (SCD16 index) ([8]; free fatty acids in plasma): lower
- unsaturated/saturated fatty acid ratios (SCD16 and SCD18 activity indices) ([8]; total fatty acid concentrations in plasma): lower
- amount of brown fat mass ([9]; dissected mice, vs control): similar
- abdominal fat as a percentage of total body weight [9, 12]: significantly lower
- quantity of abdominal fat in grams [9, 12]: significantly lower
- lean mass ([9]; echo MRI, difference between BSO and control cohorts): only a relatively small difference
- quantity of body fat ([9]; echo MRI, vs control mice, high fat diet): substantially lower
- brown fat as a percentage of total fat mass ([9]; vs control, P<0.05): higher
- abdominal fat mass as a percentage of total fat mass ([9]; vs control, P=0.055): trend towards decrease
- glucose plasma levels ([10]; 6-hour fast): lower
- insulin plasma concentrations ([10]; 6-hour fast): lower
- HOMA insulin-resistance (IR) index ([10]; from fasting glucose and insulin): significantly lower
- plasma glucose ([11]; four week study): decreased
- plasma glycerol [11]: decreased
- plasma high density lipoprotein (HDL) [11]: lower
- plasma low density lipoprotein (LDL) [11]: lower
- plasma non-esterified fatty acids [11]: lower
- plasma total cholesterol [11]: lower
- plasma triglycerides ([11]; lower, particularly so): lower
- plasma ALT concentrations ([11]; marker of NAFLD): substantially lower
